Molecules are shown by their SMILES. pIC50: −log10 of the molar value. Where two headings read alike, the source gives them in different places. Numbered stars: 1 amine (or outer) side, 2 acyl side, 3 side chain; on linkers, the order of the positions; unused ones are H or OH. Bridge positions count the residues as written; N and C are the ends. Square brackets hold non-standard residues; d marks the D form. Side chains are listed from the residue outwards. Peptide text beside a SMILES is read from it. * marks the point of attachment. DOTA = O=C(O)CN1CCN(CC(=O)O)CCN(CC(=O)*)CCN(CC(=O)O)CC1; Phe(4-Cl) = N[C@@H](Cc1ccc(Cl)cc1)C(=O)O; Arg(Me) = CNC(=N)NCCC[C@H](N)C(=O)O; Ethylenediamine = C(CN[*:2])N[*:1]; X1 = O=C(CC1CCN([*:1])CC1)[*:2]; Lys(Me) = CNCCCC[C@H](N)C(=O)O; Tle = CC(C)(C)[C@H](N)C(=O)O; Aib = CC(C)(N)C(=O)O; CO = O=C([*:1])[*:2] Some results are limits rather than exact numbers.

Series [1] has as its system PC3-PIP tumor model. Set-up: species or system mice. The note with it: mouse, in vivo. The procedure, abridged:
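Male nude mice bearing shoulder xenografts (5×10^6 PC3-PIP cells, or 5×10^6 or 1×10^7 C4-2 cells) received ~30 MBq of ^111In-labeled compound intravenously via tail vein. SPECT/CT regions of interest for heart, kidney and tumor gave % ID/g, mean of two to three animals per time point, range as error.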

The target of series [2] is T1, Fc-fusion protein of human PSMA (hPSMA-Fc) (Homo sapiens, UniProt Q04609).
T1 construct: purchased Acro Biosystems PSA-H5264
T1 sequence (Q04609 44-750 limits assumed): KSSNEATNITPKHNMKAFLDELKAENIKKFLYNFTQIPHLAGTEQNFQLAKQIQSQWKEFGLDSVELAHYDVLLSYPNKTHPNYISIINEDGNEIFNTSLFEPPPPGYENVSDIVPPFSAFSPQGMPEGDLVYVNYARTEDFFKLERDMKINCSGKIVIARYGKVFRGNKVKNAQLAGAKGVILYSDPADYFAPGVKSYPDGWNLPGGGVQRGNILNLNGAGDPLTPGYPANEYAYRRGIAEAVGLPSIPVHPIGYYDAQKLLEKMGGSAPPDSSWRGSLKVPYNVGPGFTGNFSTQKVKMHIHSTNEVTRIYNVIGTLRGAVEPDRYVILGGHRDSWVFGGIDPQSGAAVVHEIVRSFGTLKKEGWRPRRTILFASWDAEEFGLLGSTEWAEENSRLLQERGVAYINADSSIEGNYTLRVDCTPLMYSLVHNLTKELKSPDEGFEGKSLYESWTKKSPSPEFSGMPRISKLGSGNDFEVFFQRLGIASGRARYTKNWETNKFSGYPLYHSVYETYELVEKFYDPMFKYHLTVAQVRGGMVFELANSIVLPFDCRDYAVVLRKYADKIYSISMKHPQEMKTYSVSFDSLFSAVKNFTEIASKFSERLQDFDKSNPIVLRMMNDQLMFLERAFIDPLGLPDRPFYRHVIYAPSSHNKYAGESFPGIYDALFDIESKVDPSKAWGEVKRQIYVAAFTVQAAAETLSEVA
In words: Surface plasmon resonance assay (Biacore T200, single cycle kinetic). The settings on record: read-out: pKD CAT (converted). It is filed as binding. The procedure, abridged:
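hPSMA-Fc was captured (~1000 RU) on an Fc-binding-peptide CM5 chip, and compounds were run in single cycle kinetic mode at 25° C in HBST with 0.1% DMSO. Double-blank-corrected sensorgrams were fitted to a 1:1 Langmuir model to give KD, reported as pKD.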
(SPR reads the build-up and loss of mass on a sensor chip optically.)

The target in series [3] is T2, PSMA-expressing C4-2 cells (Homo sapiens, UniProt Q04609).
T2 construct: PSMA-expressing C4-2 cells (ATCC, Cat. No. CRL-3314) were cultured in RPMI-1640; host or cells: C4-2 cells
T2 sequence (Q04609 whole entry): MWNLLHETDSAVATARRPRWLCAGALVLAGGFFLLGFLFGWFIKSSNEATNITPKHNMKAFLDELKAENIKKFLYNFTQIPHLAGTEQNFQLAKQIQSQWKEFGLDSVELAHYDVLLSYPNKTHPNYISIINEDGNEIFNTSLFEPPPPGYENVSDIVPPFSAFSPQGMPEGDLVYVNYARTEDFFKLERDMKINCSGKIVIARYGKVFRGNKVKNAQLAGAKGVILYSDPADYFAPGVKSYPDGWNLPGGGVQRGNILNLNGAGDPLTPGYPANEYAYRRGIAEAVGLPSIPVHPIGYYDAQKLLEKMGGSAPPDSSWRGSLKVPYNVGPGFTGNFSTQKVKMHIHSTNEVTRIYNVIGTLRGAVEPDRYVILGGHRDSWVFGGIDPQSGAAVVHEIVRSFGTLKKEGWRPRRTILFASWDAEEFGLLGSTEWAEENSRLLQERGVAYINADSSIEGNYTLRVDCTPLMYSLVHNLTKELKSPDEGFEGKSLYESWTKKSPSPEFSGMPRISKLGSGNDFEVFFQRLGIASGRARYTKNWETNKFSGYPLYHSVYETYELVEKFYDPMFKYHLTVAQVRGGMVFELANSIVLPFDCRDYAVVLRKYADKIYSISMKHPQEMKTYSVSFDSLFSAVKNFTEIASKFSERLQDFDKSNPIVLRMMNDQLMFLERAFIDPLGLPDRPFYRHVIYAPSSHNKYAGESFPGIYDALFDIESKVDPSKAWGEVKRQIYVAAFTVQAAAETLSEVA
In words: FACS binding assay (competition with 50 nM PSM-0183). The settings on record: C4-2 cells, read-out: pIC50 [C4-2] CAT (converted). The procedure, abridged: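 C4-2 cells were incubated 1 h at 4 °C with 50 nM AF488-labelled peptide PSM-0183 plus increasing test compound concentrations, then washed twice in ice-cold buffer. Median fluorescence in the AF488 channel was read by flow cytometry. IC50/pIC50 was derived by 4PL fitting of MFI versus concentration.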
On the technique in general: Flow cytometry measures light scatter and fluorescence of single cells or particles in a stream.

The target of series [4] is T3, recombinant human PSMA (Homo sapiens, UniProt Q04609).
T3 construct: purchased BioVision K440-100
T3 sequence (Q04609 whole entry): as above
In words: Enzyme inhibition assay (GCPII Inhibitor Screening Kit, fluorescence-based). It is filed as biochemical. The note with it: carboxypeptidase activity of recombinant human PSMA; highest final concentration 1 μM. The method, then: This peptidase activity hydrolyzes γ-peptide bonds between N-acetyl amino acid and glutamate of its substrate.
The carboxypeptidase inhibition of recombinant human PSMA by test compounds was assessed using a commercial fluorescence-based PSMA activity inhibition assay.
The employed Glutamate Carboxypeptidase II (GCPII) Inhibitor Screening Kit (BioVision, Cat #K440-100) is a fluorescence-based, enzymatic in vitro assay to measure the potency of PSMA inhibitors. The provided substrate is […] in the presence of PSMA producing glutamate. The detection system is based on an enzymatic reaction in which a fluorogenic probe is reduced, generating a stable signal.
For the assay, recombinant human PSMA was diluted in GCPII Assay Buffer as recommended in the assay protocol. Serial dilutions of the test compounds were prepared, starting from 10 μM (final reaction concentration of 1 μM). In a 96-well assay plate, 40 μL of the PSMA working solution was mixed with 30 μL of GCPII Assay Buffer. Next, 10 μL of the serially diluted test compounds were added. The mixture was incubated for 20 min at 37° C. Subsequently, 20 μL of a reaction mix solution was added. The fluorescence signal increased due to fluorophore reduction, which is directly proportional to the produced amount of glutamate, was measured in kinetic mode for 90 minutes at 37° C. in a SpectraMax M5 plate reader. RFU/see was assessed by the SoftMax Pro software and plotted against peptide concentrations. Four-parameter logistic (4PL) curve fitting and pIC50 calculations were performed using the GraphPad Prism software.

[5] abbreviates: pKD category for PSMA SPR activity assay, hPSMA-Fc, 25° C.

With `CNCCCC[C@@H]1NC(=O)[C@@H](NC(=O)[C@H](Cc2ccc(Cl)cc2)NC(=O)C(C)(C)NC(=O)[C@@H](NC(=O)CC2CCN(C(=O)CN3CCN(CC(=O)O)CCN(CC(=O)O)CCN(CC(=O)O)CC3)CC2)[C@@H](C)O)CSSC[C@@H](C(=O)N[C@H](C(=O)N[C@H](C(N)=O)[C@@H](C)O)C(C)(C)C)NC(=O)[C@H](CC(N)=O)NC(=O)C(C)(C)NC(=O)[C@H](CCCNC(=N)NC)NC1=O` [PSM-0194, DOTA-Cmp-Thr-Aib-Pcf-[Cys-Lys(Me)-Arg(Me)-Aib-Asn-Cys]-Tle-Thr-NH2] ({DOTA}-[X1]T[Aib][Phe(4-Cl)]C[Lys(Me)][Arg(Me)][Aib]NC[Tle]T-NH2; disulfide 5-10), in series [1], the “AUC ratio [T/K]” value amounted to 6.7 and the “Tumor AUC” value came to 180 % ID/g*h. Besides, the Kd in series [2] (SPR, hPSMA-Fc, single cycle kinetic, 25° C., category) is less than 12.6 nM. For the same molecule, the IC50 in series [3] (FACS binding, competition with 50 nM PSM-0183, category) was less than 200 nM. Moreover, in series [4], the pIC50 was less than 6.00.
With `CC(=O)N[C@H](C(=O)NC(C)(C)C(=O)N[C@@H](Cc1ccccc1)C(=O)N[C@H]1CSSC[C@@H](C(=O)N[C@H](C(=O)N[C@H](C(=O)N[C@@H](CC(=O)O)C(N)=O)[C@@H](C)O)C(C)(C)C)NC(=O)[C@H](CC(N)=O)NC(=O)C(C)(C)NC(=O)[C@H](CCCNC(=N)N)NC(=O)[C@H](CCCCN)NC1=O)[C@@H](C)O` [PSM-0374, Ac-Thr-Aib-Phe-[Cys-Lys-Arg-Aib-Asn-Cys]-Tle-Thr-Asp-NH2] (Ac-T[Aib]FCKR[Aib]NC[Tle]TD-NH2; disulfide 4-9), the Kd in series [2] (setting [5]) was less than 12.6 nM. The IC50 in series [3] (pIC50 category of FACS binding) is less than 200 nM. Moreover, the pIC50 in series [4] is less than 6.00.
In the case of `C[C@@H](O)[C@H](NC(=O)[C@@H](NC(=O)[C@@H]1CSSC[C@H](NC(=O)[C@H](Cc2ccc(Cl)cc2)NC(=O)C(C)(C)NC(=O)[C@@H](NC(=O)CC2CCN(C(=O)CN3CCN(CC(=O)O)CCN(CC(=O)O)CCN(CC(=O)O)CC3)CC2)[C@@H](C)O)C(=O)N[C@@H](CCCCN)C(=O)N[C@@H](CCCNC(=N)N)C(=O)N[C@@H](CCC(=O)O)C(=O)N[C@@H](CC(N)=O)C(=O)N1)C(C)(C)C)C(N)=O` [PSM-0416, DOTA-Cmp-Thr-Aib-Pcf-[Cys-Lys-Arg-Glu-Asn-Cys]-Tle-Thr-NH2] ({DOTA}-[X1]T[Aib][Phe(4-Cl)]CKRENC[Tle]T-NH2; disulfide 5-10), in series [1], the “AUC ratio [T/K]” value is given as 1.6 and the “Tumor AUC” value amounted to 170 % ID/g*h. Moreover, the Kd in series [2] (setting [5]) was less than 12.6 nM. For the same molecule, the IC50 in series [3] (pIC50 category of FACS binding) is less than 200 nM. Further, the negative-log IC50 (pIC50) in series [4] is less than 6.00.
On to `CC(=O)NC(C)(C)C(=O)N[C@@H](Cc1ccc(Cl)cc1)C(=O)N[C@H]1CSSC[C@@H](C(=O)N[C@H](C(N)=O)C(C)(C)C)NC(=O)[C@H](CC(N)=O)NC(=O)C(C)(C)NC(=O)[C@H](CCCNC(=N)N)NC(=O)[C@H](CCCCN)NC1=O` [PSM-0424, Ac-Aib-Pcf-[Cys-Lys-Arg-Aib-Asn-Cys]-Tle-NH2] (Ac-[Aib][Phe(4-Cl)]CKR[Aib]NC[Tle]-NH2; disulfide 3-8), for which the Kd in series [2] (setting [5]) was less than 12.6 nM. Besides, in series [3] (pIC50 category of FACS binding), the IC50 is less than 200 nM. For the same molecule, in series [4], the negative-log IC50 (pIC50) was less than 6.00.
Regarding `CC(=O)NC(C)(C)C(=O)N[C@@H](Cc1ccc(Cl)cc1)C(=O)N[C@H]1CSSC[C@@H](C(=O)N[C@H](C(=O)NCCNC(=O)CN2CCN(CC(=O)O)CCN(CC(=O)O)CCN(CC(=O)O)CC2)C(C)(C)C)NC(=O)[C@H](CC(N)=O)NC(=O)C(C)(C)NC(=O)[C@H](CCCNC(=N)N)NC(=O)[C@H](CCCCN)NC1=O` [PSM-0516, Ac-Aib-Pcf-[Cys-Lys-Arg-Aib-Asn-Cys]-Tle-en-DOTA] (Ac-[Aib][Phe(4-Cl)]CKR[Aib]NC[Tle]-{Ethylenediamine-DOTA}; disulfide 3-8), in series [1], the “AUC ratio [T/K]” value is 1.4 and the “Tumor AUC” value is 250 % ID/g*h. The Kd in series [2] (setting [5]) was less than 12.6 nM. Further, in series [3] (pIC50 category of FACS binding), the IC50 is less than 200 nM. Also, the pIC50 in series [4] is less than 6.00.
With `CCNC(=O)NC(=N)NCCC[C@@H]1NC(=O)[C@H](CCCCN)NC(=O)[C@@H](NC(=O)[C@H](Cc2ccc(Cl)cc2)NC(=O)C(C)(C)NC(=O)[C@@H](NC(=O)CC2CCN(C(=O)CN3CCN(CC(=O)O)CCN(CC(=O)O)CCN(CC(=O)O)CC3)CC2)[C@@H](C)O)CSSC[C@@H](C(=O)N[C@H](C(=O)N[C@H](C(N)=O)[C@@H](C)O)C(C)(C)C)NC(=O)[C@H](CC(N)=O)NC(=O)C(C)(C)NC1=O` [PSM-0579, DOTA-Cmp-Thr-Aib-Pcf-[Cys-Lys-Arg(EtCAyl)-Aib-Asn-Cys]-Tle-Thr-NH2] ({DOTA}-[X1]T[Aib][Phe(4-Cl)]CKR([CO-NHEt])[Aib]NC[Tle]T-NH2; disulfide 5-10), in series [1], the “AUC ratio [T/K]” value is listed as 0.6 and the “Tumor AUC” value was found to be 110 % ID/g*h. Besides, the Kd in series [2] (PSMA SPR assay, category) is less than 12.6 nM. Moreover, the IC50 in series [3] (FACS binding, category) was less than 200 nM.
Turning to `C[C@@H](O)[C@H](NC(=O)[C@@H](NC(=O)[C@@H]1CSSC[C@H](NC(=O)[C@H](Cc2ccccc2)NC(=O)C(C)(C)NC(=O)[C@@H](NC(=O)CN2CCN(CC(=O)O)CCN(CC(=O)O)CCN(CC(=O)O)CC2)[C@@H](C)O)C(=O)N[C@@H](CCCCN)C(=O)N[C@@H](CCCNC(=N)N)C(=O)NC(C)(C)C(=O)N[C@@H](CC(N)=O)C(=O)N1)C(C)(C)C)C(N)=O` [PSM-0580, DOTA-Thr-Aib-Phe-[Cys-Lys-Arg-Aib-Asn-Cys]-Tle-Thr-NH2] ({DOTA}-T[Aib]FCKR[Aib]NC[Tle]T-NH2; disulfide 4-9), in series [1], the “AUC ratio [T/K]” value came out at 1.6 and the “Tumor AUC” value is listed as 110 % ID/g*h. Moreover, the Kd in series [2] (PSMA SPR assay, category) was less than 12.6 nM. Also, the IC50 in series [3] (FACS binding, category) was less than 200 nM.

As usually defined, the pIC50 is the IC50 on a negative log10 scale, so that one unit is a factor of ten.

For the origin of these results see patent US20260083865A1, “PROSTATE SPECIFIC MEMBRANE ANTIGEN (PSMA) LIGANDS AND USE THEREOF” (priority 2022, published 2026).
